Measured values reported in ChEMBL document CHEMBL6109096, “Synthesis, anti-allergic rhinitis evaluation and mechanism investigation of novel 1,2,4-triazole-enamides as CB1 R antagonist” (Eur J Med Chem, 2025).

Legend:
RAW264.7 [1] = assay: Cytotoxicity against mouse RAW264.7 cells assessed as reduction in cell viability at 10 uM incubated for 24 hrs by CCK-8 assay; type: toxicity, cell-based; conditions: raw264.7, 24 h
RAW264.7 [2] = assay: Inhibition of IL-1beta (unknown origin) in mouse RAW264.7 relative to control; type: cell-based; conditions: dose or concentration not given here
RAW264.7 [3] = assay: Inhibition of IL-6 (unknown origin) in mouse RAW264.7 relative to control; type: cell-based; conditions: dose or concentration not given here

| SMILES | Activity (RAW264.7 [1]) | inhibition (RAW264.7 [2]) | inhibition (RAW264.7 [3]) |
| --- | --- | --- | --- |
| CN(/C=C\c1ccccc1)C(=O)c1ncn(-c2ccccc2)n1 | Non-toxic |  |  |
| CN(/C=C\c1ccccc1)C(=O)c1nc(-c2ccc3ccccc3c2)n(-c2ccccc2)n1 | Non-toxic |  |  |
| CN(/C=C\c1ccccc1)C(=O)c1nc(-c2ccc(C(F)(F)F)cc2)n(-c2ccccc2)n1 | Non-toxic |  |  |
| Cc1ccccc1-c1nc(C(=O)N(C)/C=C\c2ccccc2)nn1-c1ccccc1 | Non-toxic |  |  |
| CN(/C=C\c1ccccc1)C(=O)c1nc(-c2ccc(Br)cc2)n(-c2ccccc2)n1 | Non-toxic |  |  |
| CCCc1nc(C(=O)N(C)/C=C\c2ccccc2)nn1-c1ccccc1 | Non-toxic |  |  |
| CN(/C=C\c1ccccc1)C(=O)c1nc(-c2ccccc2)n(-c2ccccc2)n1 | Non-toxic |  |  |
| CN(/C=C\c1ccccc1)C(=O)c1nc(-c2cccc3ccccc23)n(-c2ccccc2)n1 | Non-toxic | 74% | 86% |
| CN(/C=C\c1ccccc1)C(=O)c1nc(-c2cccs2)n(-c2ccccc2)n1 | Non-toxic |  |  |
| CC(C)c1nc(C(=O)N(C)/C=C\c2ccccc2)nn1-c1ccccc1 | Non-toxic |  |  |
| Cc1nc(C(=O)N(C)/C=C\c2ccccc2)nn1-c1ccccc1 | Non-toxic |  |  |
| CN(/C=C\c1ccccc1)C(=O)/C=C/c1ccccc1 |  | 19% |  |
